The record followed here is patent US10626092B2, “Polymorphic forms of 3-[(2-butyl-1-(2-diethylamino-ethyl)-1H-benzoimidazol-5-yl]-N-hydroxy-acrylamide and uses thereof” (MEI PHARMA, INC., priority 2016, dated 2020).

What all share (type): physicochemical
Series [1] in a line: Physical stability under accelerated aging conditions (40° C./70% RH), physical form re-determined by HT-XRPD. How it is done: Solids were analyzed for their physical stability under accelerated aging conditions (40° C./70% RH) for 48 hours. After the exposure, the physical form was determined again by HT-XRPD analysis. The physico-chemical characterization of the forms was done by TGMS analysis to determine the solvation state of the form and thermal events and by DSC analysis to confirm the thermal events observed in the SDTA signal of the TGA. (See Examples for details.)
Suspensions of 3-[2-butyl-1-(2-diethylamino-ethyl)-1H-benzoimidazol-5-yl]-N-hydroxy-acrylamide dihydrochloride monohydrate (Form 1) and 2.5 hydrate (Form 3) were prepared in 12 process relevant solvent systems. The suspensions were cycled between 5° C. and 50° C. followed by aging at 25° C. for 72 hours. […] Upon completion of the incubation time, the solids were collected, dried under ambient conditions and dried under deep vacuum before being analyzed by HT-XRPD. All the measured solids were exposed to accelerated ageing conditions (2 days at 40° C./70% RH) followed by re-analysis by HT-XRPD.
Long-term slurry conversion experiments were carried out by preparing suspensions of 3-[2-butyl-1-(2-diethylamino-ethyl)-1H-benzoimidazol-5-yl]-N-hydroxy-acrylamide dihydrochloride 2.5 hydrate (Form 3) and monohydrate (Form 1) in 12 different solvents and solvent mixtures. Approximately 30 mg of the specific form was dosed in a standard HPLC vial and aliquots of 100 μL of solvent until a suspension was formed. The suspensions were stirred for 2 weeks at room temperature and for 1 week at 50° C. The solids were isolated from the mother liquor and analyzed by HT-XRPD after mild drying under ambient conditions (ambient) and after thorough drying under vacuum (vacuum). All the solids were exposed to accelerated ageing conditions (2 days at 40° C./70% RH) and re-analyzed by HT-XRPD.
The competitive slurry experiments were performed in ethanol/water mixtures and methanol/water mixtures within a water activity range of 0-0.2. Approximately 50 mg of each pracinostat dihydrochloride solid form 2.5 hydrate and monohydrate were solid dosed in 1.8 mL HPLC vials. Aliquots of 100 μL of the different water mixtures were added until about half of the amount of solid was in solution. Subsequently, the vials were stirred for one week at 5° C., 21° C. and 50° C. Upon completion of the equilibration time, the solids were separated from the liquids by centrifugation. The solids were dried under ambient conditions (ambient) and dried under vacuum (vacuum) before HT-XRPD analysis. All solid samples were exposed to accelerated gaining conditions (40° C. and 70% RH) for two days (AAC). The water content in the liquid phase was determined Karl Fischer analysis.

The nature of series [2]: Moisture sorption study (DVS analysis). How it is done: A moisture sorption study was performed to investigate the physical stability of 3-[2-butyl-1-(2-diethylamino-ethyl)-1H-benzoimidazol-5-yl]-N-hydroxy-acrylamide dihydrochloride 2.5 hydrate upon exposure to several relative humidity profiles. HT-XRPD analyses were performed on the solid material obtained after the DVS analyses. The analytical method is described herein.
Differences in hygroscopicity (moisture uptake) of the various forms of a solid material provided a measure of their relative stability at increasing relative humidity. Moisture sorption isotherms of small samples were obtained using a DVS-1 system from Surface Measurement Systems (London, UK); this instrument is suitable for use with as little as a few milligrams of sample, with an accuracy of 0.1 μg. Several humidity profile were applied as described in each individual experiment. Steps consisted of 10% RH. Weight equilibration per step was set with a minimum holding time of 1 hour (10% relative humidity step). At the end of the DVS experiments, the recovered solid material was measured by HT-XRPD.

The next series is described as follows: Variable humidity XRPD. To be noted: variable humidity XRPD at 30° C.; dihydrochloride monohydrate.
Description: (§1) The analytical method is described herein.
as §1
(§2) For variable humidity and temperature experiments the ANSYCO HT chamber was used, installed within the D8 Advance system diffractometer (Bruker) designed with Brag-Brentano geometry and equipped with LynxEye solid state detector. The radiation used for collecting the data was CuKα1 (λ=1.54056 Å) monochromatized by germanium crystal. The material was placed on a fixed sample holder that was mounted inside the chamber.

Series [3] is described as follows: Variable temperature XRPD. The note with it: 25° C. to 143° C., cooling to 25° C., reheating to 155° C. As to the method: To investigate the phase interconversions upon temperature exposure, a variable temperature XRPD analysis on 3-[2-butyl-1-(2-diethylamino-ethyl)-1H-benzoimidazol-5-yl]-N-hydroxy-acrylamide dihydrochloride 2.5 hydrate was performed. The experiment was run between 25° C. to 130° C. with cooling back to 25° C. at the end. […] After reaching a temperature of 130° C., the material was cooled back to 25° C.
A variable temperature XRPD experiment with 3-[2-butyl-1-(2-diethylamino-ethyl)-1H-benzoimidazol-5-yl]-N-hydroxy-acrylamide dihydrochloride monohydrate was conducted to investigate the solid form conversion that occurred upon heating. The experiment was run between 25° C. to 143° C. followed by cooling to 25° C., reheating to 155° C. and then cooling again to 25° C. (see FIG. 19).
as §2
VT-XRPD: The temperature variation rate was 10° C./min and the equilibration time, prior to starting the data collection at each temperature, was 8 min. The patterns were collected in the range 4-41°2θ, with a step of 0.01573°2θ and measuring time per step of 1 sec. The data collection time, per temperature, was 40 min.

Series [4] in a line: Long-term slurry conversion experiments. As to the method:
Approximately 30 mg of the specific form was dosed in a standard HPLC vial and aliquots of 100 μL of solvent until a suspension was formed. […] The solids were isolated from the mother liquor and analyzed by HT-XRPD after mild drying under ambient conditions (ambient) and after thorough drying under vacuum (vacuum). All the solids were exposed to accelerated ageing conditions (2 days at 40° C./70% RH) and re-analyzed by HT-XRPD.

The nature of a further series: Thermocycling studies. The note with it: ethanol, absolute or extra dry; dihydrochloride monohydrate. How it is done:
The suspensions were cycled between 5° C. and 50° C. followed by aging at 25° C. for 72 hours. […] Upon completion of the incubation time, the solids were collected, dried under ambient conditions and dried under deep vacuum before being analyzed by HT-XRPD. All the measured solids were exposed to accelerated ageing conditions (2 days at 40° C./70% RH) followed by re-analysis by HT-XRPD.

Series [5] is described as follows: Moisture sorption study (DVS analysis). The source holds these as a separate data set.
The mark [6] stands for this setting: cycles 45-95-0-45% RH, two cycles.
Where [7] appears, read: second DVS: 45% to 95% RH, held at 95% RH for 10 hours.

Counter-ions that a name gives are not always drawn.

Regarding `CCCCc1nc2cc(/C=C/C(=O)NO)ccc2n1CCN(CC)CC` [Form 1, 3-[2-butyl-1-(2-diethylamino-ethyl)-1H-benzoimidazol-5-yl]-N-hydroxy-acrylamide dihydrochloride monohydrate], the “solid form after accelerated aging conditions” value in series [1] (2 days at 40° C./70% RH) is listed as “converted to the 2.5 hydrate Form 3”. For the same compound, the Stability entry in series [1] (physical stability under accelerated aging conditions (40° C./70% RH) for 48 hours, dihydrochloride monohydrate) is “Unstable”. Moreover, the “solid form recovered after DVS” value in series [2] (45-95-0% RH with aging for 5 hours at 0% RH, HT-XRPD) was 2.5 hydrate (Form 3) with a small contamination of the hemihydrate (Form 10). For the same compound, in series [2] (setting [6]), the “water uptake between 85-95% RH” value was 17%, the “weight loss during desorption between 15-0% RH” value came out at 10% and the “weight loss during desorption between 95-75% RH” value is 7%. Besides, the “water uptake at 75% RH” value in series [2] (first cycle of 45-95-0-45% RH) was found to be 18%. In addition, in series [2] (setting [7]), the “water uptake between 85-95% RH” value was 18% and the “weight loss after aging at 95% RH for 2 hours” value was “about 12%”. The “relative humidity at which the form is physically stable” value in the series “Variable humidity XRPD” is 10-85 % RH. Moreover, the “solid form conversion upon heating” value in series [3] is given as “No solid form conversions were observed”. In addition, the “solid form after slurry” value in series [4] (all ethanol/water and methanol/water mixtures at ambient conditions) is given as “transformed into the 2.5 hydrate (Form 3)”. Further, the “solid form after slurry” value in series [4] (no water present in the solvent system) was “conversion to the anhydrous Form 9”. The “solid form after thermocycling” value in “Thermocycling studies” is on record as “transformed into the anhydrous Form 9”. Also, in series [5] (DVS 45-95% RH), the “relative humidity level above which conversion to the 2.5 hydrate (Form 3) occurs” value is given as “above 85%”. In series [5] (DVS, dihydrochloride monohydrate), the hygroscopicity entry was “hygroscopic”. Also, the “solid form recovered after DVS” value in series [5] (two sorption-desorption cycles 45-95-0-95-0-45% RH, HT-XRPD, dihydrochloride monohydrate) is given as “conversion mainly to the 2.5 hydrate (Form 3)”.
